Test results published in patent publication US20230338356A1, “TREATMENT OF AUTOIMMUNE SKIN DISEASE” (Aslan Pharmaceuticals Pte Ltd, priority 2022, published 2023).

Experiments:
[1] = system: Krt14-KitL* (SCF) mice; test: Vitiligo scoring in vitiligo mouse model; type: in vivo; conditions: 6 weeks (30 treatment days)
[2] = system: PMEL T cell; test: Flow cytometry of PMEL T cell counts in tissues of vitiligo mouse model; type: in vivo
[3] = system: C3H/HeJ mice; test: Hair coverage in alopecia areata (AA) skin-graft mouse model; type: in vivo; conditions: 150 or 300 mg/kg/day oral gavage once daily, week 8 time point (10 weeks after engraftment), vs vehicle
Description: The C3H/HeJ mouse strain is known to spontaneously develop alopecia (AA) at a low frequency over a prolonged time frame. Transplantation of AA-affected skin from a C3H/HeJ mouse to unaffected C3H/HeJ recipients will induce the development of AA in nearly 100% of recipients over 4-8 weeks. Accordingly, to produce the AA mouse model, AA-affected C3H/HeJ skin was grafted onto groups of unaffected C3H/HeJ mice. The following treatment groups (n=10 per treatment group) were tested: • 1. Vehicle 0.5% methylcellulose (negative control) • 2. 150 mg/kg/day farudodstat • 3. 300 mg/kg/day farudodstat Treatments were administered once daily by oral gavage starting 2 weeks after engraftment and concluded after 12 weeks (84 days) of treatment. Photographs were taken at baseline, and every 4 weeks until the end of study Ventral hair growth was scored based on the photographs. Any mouse that had >98% hair coverage was classified as ‘no hair loss’.

[4] = system: proliferating CD3+ T cells in human hair follicles; test: CD3/Ki-67 immunofluorescence of cultured human hair follicles after CD3/CD28 activation; type: cell-based; conditions: 70 or 140 nM farudodstat + 25 μg/ml CD3/CD28, vs CD3/CD28 alone
Description: (§1) Human hair follicle samples were obtained after informed after informed, written patient consent and ethics committee approval (University of Muenster 2015-602-f-S) and the Comite de Bioetica de la Universidad Fernando Pessoa Canarias (03 (2020-06-22)). This study was conducted according to the Declaration of Helsinki principles.
Cryosections of cultured human hair follicles were immunostained, using antibodies against the human CD3 transmembrane protein of T-lymphocytes (THERMOFISHER, Cat. 15-0038-45, clone UCHT1) and Ki-67, which is a marker of proliferation (ABCAM. Cat. ab15580). Fluorescent images were acquired using the Keyence BZ-X810 inverted microscope and CD3 and double positive cells were counted in epithelium and mesenchyme along the entire hair follicle. The number of proliferative CD3+ T-cells is given as a total number of double positive cells per hair follicle.
(§2) Human hair follicles (HF) were cultured on Day 0 in 48-well plates (1 HF per […]) at 37° C. with 5% CO2 in a media William's E media+RPMI (Gibco, Life Technologies) supplemented with 10 ng/ml hydrocortisone (Sigma Aldrich), 10 μg/ml insulin (Sigma Aldrich), 2 mM L-glutamine (Sigma Aldrich), and 1% penicillin/streptomycin mix (Gibco).
On Day 1, anagen VI HFs were selected for further culture. For quality control, only HFs that grew at least 3% from Day 0 to Day 1 were selected for continued experimentation, […]

[5] = system: MHC Class I; test: MHC-I immunostaining of cultured human hair follicles after CD3/CD28 activation; type: cell-based; conditions: 70 or 140 nM farudodstat + 25 μg/ml CD3/CD28, vs CD3/CD28 alone
Description: as §1
Cryosections of cultured human hair follicles were immunostained, using a monoclonal mouse antibody against human MHC-I (DAKO, Cat. R7000, clone W6/32). Fluorescent images were acquired using the Keyence BZ-X810 inverted microscope and images were analysed using ImageJ software.
as §2
On Day 1, anagen VI HFs were selected for further culture. For quality control, only HFs that grew at least 3% from Day 0 to Day 1 were selected for continued experimentation,
In order to induce hair follicle immune privilege collapse and to activate resident intra/perifollicular immune cells, the hair follicles were pre-treated with CD3/CD28. […]

## COc1cccc(-c2cc(F)c(Nc3ncccc3C(=O)O)c(F)c2)c1 [farudodstat, 2-(3,5-difluoro-3′-methoxybiphenyl-4-ylamino) nicotinic acid]
[1]; 75 mg/kg/day oral gavage, vs vehicle
  final mean vitiligo score: improvement in vitiligo score compared to the vehicle treated control group
[1]; 150 mg/kg/day oral gavage, vs vehicle and vs 75 mg/kg/day
  final mean vitiligo score: greater improvement in vitiligo score compared to the 75 mg/kg/day group
[2]; 150 mg/kg/day oral gavage, end of experiment, flow cytometry
  mean PMEL count, 150 mg/kg/day compared to 75 mg/kg/day: greater reduction in mean PMEL count compared to 75 mg/kg/day
[2]; 75 and 150 mg/kg/day oral gavage, end of experiment, flow cytometry
  mean PMEL T cell count, dermis and epidermis: reduction in mean Pmel T cell count
[2]; oral gavage, compared with anti-IFNγ 250 μg twice a week IP
  mean PMEL count in the spleen: reduction in mean PMEL count in the spleen that was even greater than that observed for anti-IFNγ
[3]
  mean % hair coverage: slight improvement in % hair coverage compared to the mice treated with vehicle
[4]
  CD3+ T cell expansion (% of proliferating T-cells in hair follicles): T cell expansion was reduced
[5]
  MHC Class I expression levels in hair follicles: decreased MHC Class I expression levels
